Reference: patent US20130266663A1, “SOX9 INHIBITORS” (priority 2010, published 2013)

Columns and labels:
Type in all cases: cell-based, rat
SOX9 = SOX9 luciferase reporter assay in transfected astrocytes; settings: for inhibition of SOX9 activity (luciferase assay): 24 h; for luciferase reporter activity (SOX9 activity) / concentration at which the decrease in luciferase reporter activity is optimized / maximal: cultured rat astrocytes; for luciferase reporter activity (SOX9 activity) / reduction of Sox9 activity as indicated by luciferase expression / concentration at which the decrease in luciferase reporter activity is optimized / maximal: 24 h treatment; for luciferase reporter activity (SOX9 activity): various concentrations (FIG. 5); for reduction of Sox9 activity as indicated by luciferase expression: concentration not stated (FIG. 5)
Text: Cultures early after plating bear characteristics of immature and reactive astroctyes associated with acute damage. In this assay, primary astrocytes are transfected with a SOX9 reporter construct that consists of 4 repeats of the SOX9 binding site coupled to the mouse Col2a1 minimal promoter cloned upstream of a luciferase gene in the plasmid pGL4, as previously described in WO 2008/049226. After normalization for transfection efficiency, SOX9 activity can be monitored in transfected astrocytes by luciferase activity. Cells transfected with the SOX9 reporter construct were cultured in the presence and absence of potential inhibitors for 24 hours at which time the cells were lysed and luciferase levels measured. Compounds that reduced the levels of luciferase activity relative to control wells were considered as positive “hits”. In a secondary screen, false positives that cause a reduction in luciferase activity due to effects on cell viability, were eliminated using a cell viability assay (CellTiter-Flour—Promega). Subsequent to secondary screening, the “hits” were evaluated for their affect on SOX9 target gene expression by Q-PCR studies in primary astrocytes.
The utility of calmodulin antagonists (inhibitor) to decrease SOX9 target gene expression was evaluated in cultured rat astrocytes transfected with pGL4.1 4×48 Col2a1 prepared as described in Example 1. This plasmid contains 4-48 bp SOX9-binding sites from the Col2A1 enhancer which promote luciferase reporter gene expression in cells where SOX9 is active i.e. in the nucleus. The day after transfection, cells were treated for 24 h with inhibitor in concentrations as described below and in FIG. 5 before the luciferase assay was performed.
In this example, the potential of compounds that modulate calcium channels to modulate SOX9 activity is tested. The compounds were evaluated in cultured rat astrocytes transfected with pGL4.1 4×48 Col2a1. The day after transfection, cells were treated for 24 h with selected inhibitors before the luciferase assay was performed.
Antagonists to TRPV4 cation channel were tested to determine their ability to decrease the activity of SOX9 in astrocytes. The effect of TRPV4 antagonists on SOX9 function was evaluated in cultured rat astrocytes transfected with pGL4.1 4×48 Col2a1. The day after transfection, cells were treated for 24 h with 2-APB (100 μM) or ruthenium red (10 μM) before the luciferase assay was performed. […] With respect to SOX9 target genes, Q-PCR analysis of aged primary astrocyte cultures was performed to determine the impact of the TRPV4 antagonists on SOX9. […] Collagen IV is a significant scarring extracellular matrix produced by astrocytes and contributing to the inhibitory properties of the glial scar.

SOX9 target genes = experiment: Q-PCR of SOX9 target gene expression in aged primary astrocyte cultures; set-up: reduction of XT-1 expression / reduction of HAPLN1 expression / reduction of aggrecan expression / reduction of Col2a expression / reduction of Col4a expression: concentration or dose not given beside the values
Text: Another approach to modulating the capacity of calmodulin to transport SOX9 into the nucleus is via competitive inhibition of calmodulin binding. To that effect, a novel peptide (SOX-CAL) was generated to specifically block the calmodulin SOX9 binding site. The SOX-CAL peptide sequence, […] (SEQ ID NO.8), corresponds with the calmodulin binding sequence in SOX9. To ensure the peptide's entry into the cell, it was synthesized fused to the protein transduction domain of the HIV-1 Tat protein. […] This analysis was performed in contrast to the control FLAG-TAT peptide.
Antagonists to TRPV4 cation channel were tested to determine their ability to decrease the activity of SOX9 in astrocytes. The effect of TRPV4 antagonists on SOX9 function was evaluated in cultured rat astrocytes transfected with pGL4.1 4×48 Col2a1. The day after transfection, cells were treated for 24 h with 2-APB (100 μM) or ruthenium red (10 μM) before the luciferase assay was performed. The broad-spectrum transient receptor potential (TRP) channel antagonist 2-APB inhibited SOX9 activity by ˜70%, while the vanniloid subfamily-specific TRP antagonist ruthenium red inhibited SOX9 activity by ˜25%. With respect to SOX9 target genes, Q-PCR analysis of aged primary astrocyte cultures was performed to determine the impact of the TRPV4 antagonists on SOX9. Treatment with ruthenium red specifically reduces aggrecan and Col4a expression by 40% and 50%, respectively (FIG. 6B), while 2-APB reduces XT-1, HAPLN1, aggrecan, Col2a, and Col4a by 50%, 70%, 80%, 50%, and 60% respectively (FIG. 6B, C), in rat primary astrocytes after a 48 hour exposure (n=3). […] Based on the role that the TRP channels serve in modulating calcium levels, and therefore calmodulin activity, the effect of the TRP channel blockers on SOX9 activity appears to be indirect.

Collagen IV = experiment: Western blotting of astrocyte culture protein extract probed with anti-collagen IV; settings: Cal-TAT treated vs control cultures
[1] = rat primary astrocytes, 48 hour exposure, n=3
[2] = primary astrocyte cultures, in contrast to control FLAG-TAT peptide (FIG. 7C)

Compound: NCCOB(c1ccccc1)c1ccccc1 [2-APB]
- inhibition of SOX9 activity (luciferase assay) (SOX9; 100 μM): ~70%
- luciferase reporter activity (SOX9 activity) (SOX9): significantly reduce luciferase production
- reduction of Col2a expression (SOX9 target genes; [1]): 50%
- reduction of Col4a expression (SOX9 target genes; [1]): 60%
- reduction of HAPLN1 expression (SOX9 target genes; [1]): 70%
- reduction of XT-1 expression (SOX9 target genes; [1]): 50%
- reduction of aggrecan expression (SOX9 target genes; [1]): 80%

Compound: RRPMNAFMVWAQAARRK [SOX-CAL peptide]
- SOX9 target genes expression (SOX9 target genes; longer treatments (1 week)): even more profound reductions

Compound: Cal-TAT: SOX-CAL peptide fused to the HIV-1 Tat transduction domain, one N-/C-terminal configuration (KRPMNAFMVWAQAARRKYGRKKRRQRRR)
- expression of C4ST (SOX9 target genes; 10 uM peptide, 48 hours): significantly reduced
- expression of XT1 (SOX9 target genes; 10 uM peptide, 48 hours): significantly reduced
- Collagen 2A expression (SOX9 target genes; [2]): significant reduction
- GFAP expression (SOX9 target genes; [2]): significant reduction
- XT-1 expression (SOX9 target genes; [2]): significant reduction
- aggrecan expression (SOX9 target genes; [2]): significant reduction
- brevican expression (SOX9 target genes; [2]): significant reduction
- level of type IV collagen (Western blot) (Collagen IV): reduced level of type IV collagen

Compound: N.N.N.N.N.N.N.N.N.N.N.N.N.N.[Cl-].[Cl-].[Cl-].[Cl-].[Cl-].[Cl-].[O-2].[O-2].[Ru+3].[Ru+3].[Ru+4] [ruthenium red]
- inhibition of SOX9 activity (luciferase assay) (SOX9; 10 μM): ~25%
- reduction of Sox9 activity as indicated by luciferase expression (SOX9): about 25%
- luciferase reporter activity (SOX9 activity) (SOX9): significantly reduce luciferase production
- reduction of Col4a expression (SOX9 target genes; [1]): 50%
- reduction of aggrecan expression (SOX9 target genes; [1]): 40%

Compound: CC(COc1ccccc1)N(CCCl)Cc1ccccc1 (stereo not drawn) [phenoxybenzamine]
- reduction of Sox9 activity as indicated by luciferase expression (SOX9): up to 80%
- luciferase reporter activity (SOX9 activity) (SOX9): dose dependent inhibition of reporter activity at 20 and 50 uM

Compound: OCCN1CCN(CCCN2c3ccccc3Sc3ccc(C(F)(F)F)cc32)CC1 [Fluphenazine, fluphenazine]
- luciferase reporter activity (SOX9 activity) (SOX9): dose dependent decrease in reporter activity

Compound: COc1ccc2cc1Oc1ccc(cc1)C[C@H]1c3cc(c(OC)cc3CCN1C)Oc1c(OC)c(OC)cc3c1[C@H](C2)N(C)CC3 [Tetrandine, Tetrandrine]
- reduction of Sox9 activity as indicated by luciferase expression (SOX9): approximately 20%

Compound: TAT-Cal: SOX-CAL peptide fused to the HIV-1 Tat transduction domain, other N-/C-terminal configuration (YGRKKRRQRRRKRPMNAFMVWAQAARRK)
- expression of C4ST (SOX9 target genes; 10 uM peptide, 48 hours): significantly reduced
- expression of Sox9 (SOX9 target genes; 10 uM peptide, 48 hours): increased
- expression of XT1 (SOX9 target genes; 10 uM peptide, 48 hours): significantly reduced

Compound: NCCCCCCNS(=O)(=O)c1cccc2ccccc12 [W5]
- concentration at which the decrease in luciferase reporter activity is optimized / maximal (SOX9): 50 µM
- luciferase reporter activity (SOX9 activity) (SOX9): does dependent decreases in reporter activity

Compound: Clc1ccc(C(c2ccc(Cl)cc2)n2cc[n+](CC(OCc3ccc(Cl)cc3Cl)c3ccc(Cl)cc3Cl)c2)cc1 (stereo not drawn) [Calmidazolium, calmidazolium]
- reduction of Sox9 activity as indicated by luciferase expression (SOX9): approximately 20%

Compound: NCCCCCCNS(=O)(=O)c1cccc2c(Cl)cccc12 [W7]
- concentration at which the decrease in luciferase reporter activity is optimized / maximal (SOX9): 50 µM
- luciferase reporter activity (SOX9 activity) (SOX9): does dependent decreases in reporter activity
